How the values were obtained:
[1] = test system: human L444P mutated Gba; test: Gba activity in brain and organs of L444P transgenic mice treated with chaperone in drinking water (incl. washout study); type: in vivo, mouse; conditions: for Gba activity in brain: about 10 mg/kg/day in drinking water
Procedure: L444P is a mutation associated with Types 2 and 3 Gaucher disease. […] Concomitant glucosylceramide synthase disruption is necessary, since previously made L444P transgenic mice died within 3 days of birth due to impaired permeability barrier function in the epidermis.
In addition, mice in a “washout” period of 2 weeks of non-chaperone treatment following 4 weeks of treatment were also evaluated for reversion of surrogate markers back to levels seen in untreated controls.
Mice were administered isofagomine or C-benzyl-isofagomine in their drinking water, ad libitum. Estimated daily dosage based on the volume of water consumed is about 10 mg/kg/day.
[…] Brian tissue is freshly harvested (blood washed away with PBS), or thawed from frozen stock. Tissue is minced tissue and homogenized on ice in 200-500 μl McIlvaine (MI) buffer (0.25% sodium taurocholate, 0.1% Triton x-100 in 0.1M citrate and 0.2M phosphate buffer, pH 5.2), and centrifuged at 10,000×g. The supernatant is collected and may be frozen at this step.
About 1-10 μl of supernatant from the brain tissue homogenates is added to a clear 96-well plate for the Micro BCA Protein Assay (Pierce, cat #23235) to quantitate the amount of total protein according to the manufacturer's protocol. As a negative control, another 10 μl is added to a black plate, mixed with 10 μl of 2.5 mM CBE (2.7 mg Conduritol B Epoxide in 6.7 ml buffer), an inhibitor of Gba activity, and left at room temperature (RT) for 30 minutes. 50 μl of 3 mM 4-methal Umbelliferal beta-D-glucoside (4-MU-beta-D-glucoside; made fresh, powder is dissolved in 0.2 ml of DMSO, then q.s. to proper volume with MI buffer), a Gba substrate, is then added, and the black plate is further incubated at 37° C. for 1 hr. After incubation, 10 μl of supernatant is added to a second black plate, mixed with 10 μl of MI buffer and 50 μl […] of Gba substrate 4-MU-beta-D-glucoside, and incubated at 37° C. for 1 hr. The reaction is then stopped by adding 70 μl 0.2 M glycine, pH 10.8. The plate is read in a plate-reader (Victor2 1420 multilabel counter; Wallac) at F460.
Relative […] is determined by the following equation: F460 without CBE−F460 with CBE)/(A550 sample−A550 buffer)
F460 reading is converted into nmole 4-MU based on 4-MU standard curve and A550 is converted into mg of protein based on the protein standard curve. One unit of Gba activity is defined as nmole of 4-MU released in one hour.
To determine if and in what time frame the effects of drinking water dosed AT2101 on L444P mice regress after cessation of the treatment, a washout study was performed. Nine male 3 month old L444P mice were dosed at about 10 mg/kg/day for 4 weeks with an equal number of mice untreated as a control.

[2] = test system: N370S Gaucher fibroblasts (DMN89.15); test: Gba / LAMP-1 lysosomal staining (confocal microscopy) in N370S Gaucher fibroblasts; type: cell-based, human; conditions: for Gba staining localization: N370S Gaucher fibroblasts; for Amount of Gba in the lysosomes: dual Gba/LAMP-1 staining vs untreated control; for Lysosome staining pattern for Gba and LAMP-1: dual staining vs untreated control
Procedure: N370S fibroblasts (DMN89.15) were cultured in DMEM with 10% FBS and 1% penn/strep at 37 C with […]. Wild-type fibroblast cell line CRL-2097 form a healthy individual was used as a control. Cells were sub-cultured from 10 cm plates into 12-well plates with cover slips. Cells from one confluent 10 cm plate were diluted in 38 ml of culture medium.
C-benzyl-isofagomine-control (secondary antibody only); untreated; 0.03 μM; 0.1 μM; 0.3 μM; 1.0 μM; 3.0 μM; and 10.0 μM.
Isofagomine-control (secondary antibody only); untreated; 10 μM; 30 μM; 100 μM; 1 nM; 3 nM; and 10 nM.
Cells were cultured for a total of about 6 days.
Cells were washed for 5 minutes in PBS, fixed for 15 minutes in 3.7% paraformaldahyde (in PBS), washed again for 5 minutes in PBS, and permeabilized with 0.5% saponin for 5 minutes. Cells were then washed with PBS containing 0.1% saponin, treated for 5 minutes with fresh 0.1% sodium borohydride/0.01% saponin, and washed 3 times with PBS with 0.1% saponin/1% BSA for 5 minutes each.
Cells were incubated for 1 h with 500 μl of primary anti-Gba (1:200) or anti-LAMP-1 (1:200; BD Pharmingen, Cat. No. 555798) antibody solution in PBS with 1% BSA. Lysosomal staining using LysoTracker® Red (Cambrex, East Rutherford, N.J.) was performed according to the manufacturer's instructions. Following incubation, cells were washed 3 times in 1% BSA containing 0.1% saponin in PBS, followed by incubation with the secondary antibody solution (1:500; anti-rabbit […] for anti-Gba and anti-mouse IgG AlexaFluor594 for anti-LAMP-1). Cells were mounted onto coverslips, sealed, and immediately viewed.
Cells were visualized using a confocal microscope. The red and green channel gains were set to 6 and the laser power was optimized using the intensity window, and were not adjusted for the rest of the experiment. All slides were analyzed at the same sitting and all images were gathered without any zoom using the 20× and 60× lens, the small pinhole, optimal pixel size, an average of 2 scans, and red and green channels were acquired simultaneously as in all previous experiments.

[3] = test system: lymphoblasts established from Fabry patients with R301Q or Q279E mutations; conditions: cited from earlier work
[4] = molecular target: T1, human mutant α-Gal A (R301Q) (Homo sapiens, UniProt P06280, R301Q); conditions: neutral pH; cited from earlier work
T1 sequence (P06280 32-429 R301Q): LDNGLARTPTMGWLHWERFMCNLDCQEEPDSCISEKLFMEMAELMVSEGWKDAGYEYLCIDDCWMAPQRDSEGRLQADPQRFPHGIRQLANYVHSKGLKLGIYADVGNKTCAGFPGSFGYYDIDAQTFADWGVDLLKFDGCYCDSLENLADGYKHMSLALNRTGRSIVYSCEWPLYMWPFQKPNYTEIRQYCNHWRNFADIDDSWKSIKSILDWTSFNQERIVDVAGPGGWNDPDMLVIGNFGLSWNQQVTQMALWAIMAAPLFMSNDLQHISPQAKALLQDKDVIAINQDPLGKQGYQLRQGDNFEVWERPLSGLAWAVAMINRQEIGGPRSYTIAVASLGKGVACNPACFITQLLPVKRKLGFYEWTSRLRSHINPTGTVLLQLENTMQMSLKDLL

[5] = molecular target: T2, mutant (R301Q) α-Gal A (Homo sapiens, UniProt P06280, R301Q); conditions: oral administration, transgenic mice overexpressing mutant (R301Q) α-Gal A; cited from earlier work
T2 construct: host or cells: major organs of transgenic mice
T2 sequence (P06280 32-429 R301Q): T1 sequence (P06280 32-429 R301Q)

[6] = test system: Gaucher patient cells; conditions: cited from earlier work
[7] = Detection of IFG in the CSF of treated monkeys; type: in vivo
[8] = after two weeks of treatment, data not shown
[9] = N370S fibroblasts, 3.0 μl (so in the source)
[10] = N370S fibroblasts, concentration not given

## OCC1C(Cc2ccccc2)NCC(O)[C@@H]1O (stereo partly shown) [C-benzyl-isofagomine]
[1]; [8]
  Gba activity in brain (in words): trend toward increased activity
  Gba activity in lung (in words): trend toward increased activity
  Gba activity in spleen (in words): significant increased
[1]; after two weeks of treatment, data not shown, listed as AT2206
  Gba activity in brain (in words): trend toward increase
[2]; 3 μM, Gba staining only (FIG. 2N)
  Gba staining localization: localize to lysosomes
[2]; [9]
  Amount of Gba in the lysosomes: increased
  Lysosome staining pattern for Gba and LAMP-1: re-established a normal lysosome punctuate staining pattern

## OC[C@H]1NC[C@H](O)[C@@H](O)[C@H]1O [DGJ, 1-deoxygalactonojirimycin]
[3]
  Mutant enzyme activity in lymphoblasts: enhanced
[4]
  In vitro stability of the mutant enzyme: effectively increased
[5]
  Enzyme activity in major organs: substantially elevated

## OC[C@H]1CNC[C@@H](O)[C@@H]1O [isofagomine, (3R,4R,5R)-5-(hydroxymethyl)-3,4-piperidinediol]
[1]; after 2 weeks of treatment, untreated about 1 U/mg
  Gba activity in brain: about 4.5 U/mg
[1]; after 4 weeks of treatment, untreated about 1 U/mg
  Gba activity in brain: about 4.5 U/mg
[1]; after 12 weeks of treatment, p<0.001
  Gba activity in brain: about 6 U/mg
[1]; after 4 weeks of treatment at 10 mg/kg/day (FIG. 1B)
  Gba activity in brain, washout study (in words): significantly elevated
[1]; after as little as two weeks of treatment, persisted through 4-12 weeks (FIG. 1A)
  Gba activity in brain (in words): Significant increase
[6]
  Rescue of Gba: rescue
[7]
  Detection in the CSF following treatment: detected
[2]; 30 μM, Gba staining only (FIG. 2M)
  Gba staining localization: localize to lysosomes
[2]; N370S fibroblasts, 30.0 μM
  Amount of Gba in the lysosomes: increased
  Lysosome staining pattern for Gba and LAMP-1: re-established a normal lysosome punctuate staining pattern
[2]; [10]
  Amount of Gba seen in the lysosome: increased
  Lysosomal staining pattern of the cells: restored a normal lysosomal staining pattern

— patent US9597324B2, “Treatment of CNS disorders associated with mutations in genes encoding lysosomal enzymes” (Amicus Therapeutics, Inc., priority 2005, dated 2017)
